We go through 36 compounds from patent publication US11634393B2, “Substituted tolyl fungicides” (FMC CORPORATION, priority 2018, dated 2023).

Assay [1] relates to Puccinia recondita f. sp. tritici. The experiment in a line: Test B: wheat leaf rust, spray on wheat seedlings, disease control rating. It counts as in vivo. The following applies: Rate 10 ppm, 100 = 100% disease control, 0 = no disease control relative to the controls; for pest or weed control at 10 ppm: Puccinia recondita, 192 h. The source says:
(§1) General protocol for preparing test suspensions for Tests A-F: the test compounds were first dissolved in acetone in an amount equal to 3% of the final volume and then suspended at the desired concentration (in ppm) in acetone and purified water (50/50 mix by volume) containing 250 ppm of the surfactant PEG400 (polyhydric alcohol esters). The resulting test suspensions were then used in Tests A-F.
The test solution was sprayed to the point of run-off on wheat seedlings. The following day the seedlings were inoculated with a spore suspension of Puccinia recondita f. sp. tritici (the causal agent of wheat leaf rust) and incubated in a saturated atmosphere at 20° C. for 24 h, and then moved to a growth chamber at 20° C. for 7 days, after which time disease ratings were made.
(§2) A rating of 100 indicates 100% disease control and a rating of 0 indicates no disease control (relative to the controls). A dash (-) indicates the compound was not tested.

A further assay has as its system Phakopsora pachyrhizi. Put plainly: Test D: Asian soybean rust, spray on soybean seedlings, disease control rating. The following applies: Rate 10 ppm, 100 = 100% disease control, 0 = no disease control relative to the controls; for pest or weed control at 10 ppm: Phakopsora pachyrhizi, 216 h. It counts as in vivo.
Excerpt: as §1
The test solution was sprayed to the point of run-off on soybean seedlings. The following day the seedlings were inoculated with a spore suspension of Phakopsora pachyrhizi (the causal agent of Asian soybean rust) and incubated in a saturated atmosphere at 22° C. for 24 h and then moved to a growth chamber at 22° C. for 8 days, after which time visual disease ratings were made.
as §2

With `COC(=O)NCc1cc(-c2ccn(-c3c(SC)cc(F)cc3SC)n2)ccc1C` [Compound 20], the pest or weed control at 10 ppm (in assay [1]; in the assay on Phakopsora pachyrhizi) was 0% each time.

For `COC(=O)NCc1cc(-c2ccn(-c3c(F)cc(C(OC)C(C)=O)cc3F)n2)ccc1C` (stereo not drawn) [Compound 76], the “Test B disease control rating” value in assay [1] is 68%. The “Test D disease control rating” value in the assay with Phakopsora pachyrhizi turned out to be 100%.

As for `COC(=O)NCc1cc(-c2ccn(-c3c(F)cc(Br)cc3F)n2)ccc1C` [Compound 7, methyl N-[[5-[1-(4-bromo-2,6-difluorophenyl)-1H-pyrazol-3-yl]-2-methylphenyl]methyl]carbamate], the pest or weed control at 10 ppm (in assay [1]; with Phakopsora pachyrhizi) was 100% each time.

Turning to `COC(=O)NCc1cc(-c2ccn(-c3c(F)cc(OC(F)(F)C(F)F)cc3F)n2)ccc1C` [Compound 29], in assay [1], the “Test B disease control rating” value was 100%. Further, in the assay with Phakopsora pachyrhizi, the “Test D disease control rating” value is 100%.

`COC(=O)NCc1cc(-c2ccn(-c3c(F)cc(Cl)cc3Cl)n2)ccc1C` [Compound 51]: the pest or weed control at 10 ppm (in assay [1]; in the assay on Phakopsora pachyrhizi) was 100% in each case.

In the case of `COC(=O)NCc1cc(-c2ccn(-c3c(F)cc(C=O)cc3F)n2)ccc1C` [Compound 67, methyl N-[[5-[1-(2,6-difluoro-4-formylphenyl)-1H-pyrazol-3-yl]-2-methylphenyl]methyl]carbamate], the pest or weed control at 10 ppm in assay [1] was determined as 0%; in the assay with Phakopsora pachyrhizi it was 12%.

For the compound `COC(=O)NCc1cc(-c2ccn(-c3c(F)cc(C4OCCO4)cc3F)n2)ccc1C` [Compound 133], the pest or weed control at 10 ppm was 99% in assay [1] and 100% with Phakopsora pachyrhizi.

Take `COC(=O)NCc1cc(-c2cn(-c3c(OC)cc(OC)cc3OC)nn2)ccc1C` [Compound 127]: the pest or weed control at 10 ppm (in assay [1]; in the assay with Phakopsora pachyrhizi) was 0% each time.

As to `COC(=O)NCc1cc(-c2ccn(-c3c(F)cc(C(C)=NO)cc3F)n2)ccc1C` [Compound 69], in assay [1], the “Test B disease control rating” value is 99%. Moreover, the “Test D disease control rating” value with Phakopsora pachyrhizi is reported as 97%.

With `CNc1cc(F)c(-n2ccc(-c3ccc(C)c(CNC(=O)OC)c3)n2)c(F)c1` [Compound 36], the pest or weed control at 10 ppm in assay [1] stood at 68%; with Phakopsora pachyrhizi it was 100%.

As to `COC(=O)NCc1cc(-c2ccn(-c3c(Cl)cccc3Br)n2)ccc1C` [Compound 60], the pest or weed control at 10 ppm in assay [1] amounted to 68%; in the assay on Phakopsora pachyrhizi, 100%.

Regarding `COC(=O)NCc1cc(-c2ccn(-c3c(Cl)cc(Cl)cc3Cl)n2)ccc1C` [Compound 57], the pest or weed control at 10 ppm is 74% in assay [1] and 100% in the assay with Phakopsora pachyrhizi.

Regarding `COC(=O)NCc1cc(-c2ccn(-c3c(F)cc(O)cc3F)n2)ccc1C` [Compound 10, methyl N-[[5-[1-(2,6-difluoro-4-hydroxyphenyl)-1H-pyrazol-3-yl]-2-methylphenyl]methyl]carbamate], the pest or weed control at 10 ppm (in assay [1]; in the assay on Phakopsora pachyrhizi) was 0% in each case.

On to `CCC(C)Oc1cc(F)c(-n2ccc(-c3ccc(C)c(CNC(=O)OC)c3)n2)c(F)c1` (stereo not drawn) [Compound 92], for which the “Test B disease control rating” value in assay [1] came to 100%. In addition, the “Test D disease control rating” value in the assay on Phakopsora pachyrhizi was found to be 100%.

In the case of `COC(=O)NCc1cc(-c2ccn(-c3c(F)cccc3I)n2)ccc1C` [Compound 45], the pest or weed control at 10 ppm in assay [1] was 0%; with Phakopsora pachyrhizi, 100%.

With `COC(=O)NCc1cc(-c2ccn(-c3c(F)cc(C=NO)cc3F)n2)ccc1C` [Compound 72], the “Test B disease control rating” value in assay [1] amounted to 100%. In addition, the “Test D disease control rating” value with Phakopsora pachyrhizi worked out at 77%.

For `COC(=O)NCc1cc(-c2ccn(-c3c(C)cc(Br)cc3C)n2)ccc1C` [Compound 48], the pest or weed control at 10 ppm in assay [1] is 68%; with Phakopsora pachyrhizi, 99%.

Turning to `C=CCON=C(C)c1cc(F)c(-n2ccc(-c3ccc(C)c(CNC(=O)OC)c3)n2)c(F)c1` [Compound 85], the “Test B disease control rating” value in assay [1] stood at 90%. Further, in the assay on Phakopsora pachyrhizi, the “Test D disease control rating” value is on record as 98%.

As to `COC(=O)NCc1cc(-c2ccn(-c3c(F)cc([N+](=O)[O-])cc3Cl)n2)ccc1C` [Compound 37], the figures for the pest or weed control at 10 ppm (in assay [1]; in the assay on Phakopsora pachyrhizi) were 26% and 0%, respectively.

With `COC(=O)NCc1cc(-c2ccn(-c3c(F)cc(C(C)=NOC(C)C)cc3F)n2)ccc1C` [Compound 86], the “Test B disease control rating” value in assay [1] was determined as 99%. Further, the “Test D disease control rating” value with Phakopsora pachyrhizi was 100%.

Regarding `COC(=O)NCc1cc(-c2ccn(-c3c(F)cc(I)cc3F)n2)ccc1C` [Compound 8, methyl N-[[5-[1-(2,6-difluoro-4-iodophenyl)-1H-pyrazol-3-yl]-2-methylphenyl]methyl]carbamate], the pest or weed control at 10 ppm (in assay [1]; in the assay with Phakopsora pachyrhizi) was 100% throughout.

With `COC(=O)NCc1cc(-c2ccn(-c3c(Cl)cc(Br)cc3Cl)n2)ccc1C` [Compound 56], the pest or weed control at 10 ppm in assay [1] turned out to be 80%; with Phakopsora pachyrhizi it was 100%.

`COC(=O)NCc1cc(-c2cnn(-c3c(F)cc(Cl)cc3F)n2)ccc1C` [Compound 117, methyl N-[[5-[2-(4-chloro-2,6-difluorophenyl)-2H-1,2,3-triazol-4-yl]-2-methylphenyl]methyl]carbamate]: the pest or weed control at 10 ppm (in assay [1]; in the assay on Phakopsora pachyrhizi) was 100% throughout.

As to “methyl N-[[5-[1-(2,6-difluoro-4-methoxyphenyl)-1H-pyrazol-3-yl]-2-methylphenyl]methyl]carbamate [Compound 33]”, in assay [1], the “Test B disease control rating” value was found to be 99%. For the same compound, the “Test D disease control rating” value in the assay with Phakopsora pachyrhizi is given as 100%.

For `COC(=O)NCc1cc(-c2ccn(-c3c(F)cc(N)cc3F)n2)ccc1C` [Compound 5, methyl N-[[5-[1-(4-amino-2,6-difluorophenyl)-1H-pyrazol-3-yl]-2-methylphenyl]methyl]carbamate], the pest or weed control at 10 ppm (in assay [1]; in the assay on Phakopsora pachyrhizi) was 0% in each case.

Consider `COC(=O)NCc1cc(-c2ccn(-c3c(F)cc(OC(C)C)cc3F)n2)ccc1C` [Compound 14, methyl N-[[5-[1-[2,6-difluoro-4-(1-methylethoxy)phenyl]-1H-pyrazol-3-yl]-2-methylphenyl]methyl]carbamate], for which the pest or weed control at 10 ppm (in assay [1]; with Phakopsora pachyrhizi) was 100% throughout.

`COC(=O)NCc1cc(-c2ccn(-c3c(F)cc(C4OCCCO4)cc3F)n2)ccc1C` [Compound 134]: the pest or weed control at 10 ppm in assay [1] was 89%; in the assay with Phakopsora pachyrhizi, 100%.

Take `COC(=O)NCc1cc(-c2ccn(-c3c(F)cc(CF)cc3F)n2)ccc1C` [Compound 77]: the pest or weed control at 10 ppm (in assay [1]; in the assay with Phakopsora pachyrhizi) was 100% throughout.

For `COC(=O)NCc1cc(-c2ccn(-c3c(F)cc(OC(F)(F)F)cc3F)n2)ccc1C` [Compound 78, methyl N-[[5-[1-[2,6-difluoro-4-(trifluoromethoxy)phenyl]-1H-pyrazol-3-yl]-2-methylphenyl]methyl]carbamate], the pest or weed control at 10 ppm (in assay [1]; in the assay with Phakopsora pachyrhizi) was 100% throughout.

As for `COC(=O)NCc1cc(-c2ccn(-c3c(F)cc(C(F)F)cc3F)n2)ccc1C` [Compound 87, methyl N-[[5-[1-[4-(difluoromethyl)-2,6-difluorophenyl]-1H-pyrazol-3-yl]-2-methylphenyl]methyl]carbamate], the pest or weed control at 10 ppm (in assay [1]; with Phakopsora pachyrhizi) was 100% throughout.

As to `COC(=O)NCc1cc(-c2ccn(-c3c(F)cc(SC(F)F)cc3F)n2)ccc1C` [Compound 43, methyl N-[[5-[1-[4-[(difluoromethyl)thio]-2,6-difluorophenyl]-1H-pyrazol-3-yl]-2-methylphenyl]methyl]carbamate], the pest or weed control at 10 ppm (in assay [1]; with Phakopsora pachyrhizi) was 100% throughout.

On to `COC(=O)NCc1cc(-c2ccn(-c3c(F)cc(OCF)cc3F)n2)ccc1C` [Compound 73], for which the pest or weed control at 10 ppm (in assay [1]; in the assay on Phakopsora pachyrhizi) was 100% each time.

Turning to `COC(=O)NCc1cc(-c2ccn(-c3c(Cl)cc([N+](=O)[O-])cc3Cl)n2)ccc1C` [Compound 54], the pest or weed control at 10 ppm (in assay [1]; with Phakopsora pachyrhizi) was 0% each time.

Regarding `COC(=O)NCc1cc(-c2ccn(-c3c(Cl)cc(C4CC4)cc3Cl)n2)ccc1C` [Compound 65, methyl N-[[5-[1-(2,6-dichloro-4-cyclopropylphenyl)-1H-pyrazol-3-yl]-2-methylphenyl]methyl]carbamate], the pest or weed control at 10 ppm in assay [1] is 97%; with Phakopsora pachyrhizi it was 100%.

Take `COC(=O)NCc1cc(-c2ccn(-c3c(F)cc(C(=O)OC)cc3F)n2)ccc1C` [Compound 70, methyl 3,5-difluoro-4-[3-[3-[[(methoxycarbonyl)amino]methyl]-4-methylphenyl]-1H-pyrazol-1-yl]benzoate]: the pest or weed control at 10 ppm in assay [1] worked out at 74%; in the assay on Phakopsora pachyrhizi it was 81%.

As to `COC(=O)NCc1cc(-c2ccn(-c3c(F)cc(SC(C)(C)C)cc3F)n2)ccc1C` [Compound 42, methyl N-[[5-[1-[4-[(1,1-dimethylethyl)thio]-2,6-difluorophenyl]-1H-pyrazol-3-yl]-2-methylphenyl]methyl]carbamate], the pest or weed control at 10 ppm in assay [1] was 100%; in the assay with Phakopsora pachyrhizi it was 73%.
